# Tested on: pseudotyped HIV-1 with the D614G SARS-CoV-2 spike glycoprotein
# Type: cell-based
Compound,Antiviral Activity (% of Inhibition) [%],IC50 (50% inhibitory concentration)
CC1=C[C@H](O)[C@H]2C[C@@H]1C2(C)C (relative stereo) [cis-Verbenol],−171.26 ± 32.54,
C/C=C/[C@H]1OC(=O)C=C[C@H]1OC(C)=O [Acetylphomolactone],−0.65 ± 6.16,
CC(=O)OC1C=CC(=O)OC1C1OC1C (stereo not drawn) [Asperline],−15.48 ± 8.34,
CC(=O)C1COC(O)C1C (stereo not drawn) [Botryodiplodin],−88.21 ± 12.51,
C=C1CC[C@H]2O[C@]2(C)CC[C@@H]2[C@@H]1CC2(C)C [Caryophyllene Oxide],43.82 ± 6.31,
C[C@H]1CC[C@@H](C(C)(C)O)CC2=C1CC[C@@H]2C [Guaiol],−60.20 ± 8.02,
CC(O)[C@@H]1NC(=O)c2cccn2C1=O (stereo partly drawn) [Macrophominol],−91.39 ± 26.65,
C=C(C)[C@H]1CC=C(C)CC1 [R-Limonene],−27.90 ± 16.41,
C/C=C/c1ccc(OC)cc1 [Trans-anethole],5.02 ± 0.71,
C=C1CC/C=C(\C)CC[C@@H]2[C@@H]1CC2(C)C [β-Caryophyllene],,98.5
Isoasperline,−19.82 ± 10.21,
S-Limonene,−62.63 ± 22.17,

# From paper PMC8911944, “Screening of Natural Products Inhibitors of SARS-CoV-2 Entry” (Molecules, 2022)
